Patent US20260015363A1, “SUBSTITUTED PYRIMIDINE-FUSED RING INHIBITOR, METHOD FOR PREPARING SAME, AND USE THEREOF” (Suzhou Zelgen Biopharmaceuticals Co., Ltd., priority 2022, published 2026)
Where a name gives a salt, the structure may show the parent alone.

How the values were obtained:
[1] = test system: AsPC-1 (G12D); assay: KRAS mutant cell proliferation inhibition assay (CellTiter-Glo 3D), AsPC-1; type: cell-based, human; conditions: AsPC-1 (G12D) cells, 7 days
Experimental: (§1) Positive control: MRTX1133
(§2) • (a) The cells were thawed in T75 cell culture flasks: • (b) When 80%-90% cell confluence was achieved, the cells were passaged.
(§3) The diluted test compound was added to a 384-well cell culture plate using a nanoliter pipetting system, and replicate wells were set. An equal volume of medium was added to the positive control group; an equal volume of DMSO was added to the negative control group. The plate was centrifuged at 1000 rpm at room temperature for 1 min.
(§4) The cells were seeded into a) 384-well culture plate. An equal volume of cells was added to the negative control group, and only an equal volume of medium was added to the positive control group. The plate was centrifuged at 1000 rpm at room temperature for 1 min. The final DMSO concentration in the final compound was 0.5%. The plate was incubated in a thermostatic incubator at 37° C. with 5% CO2 for 7 days.
(§5) CellTiter-Glo® 3D was added to b) 384-well cell culture plate at 20 μL/well. The plate was shaken at 320 rpm in the dark for 20 min, and incubated at room temperature in the dark for 2 h. The luminescence values were read using an Envision multi-mode microplate reader.
(§6) The inhibition rates (IRs) of the test compounds were calculated according to the following formula: IR (%)=(1−(RLU compound−RLU blank control)/(RLU vehicle control−RLU blank control))×100%. The inhibition rates of the compounds at different concentrations were calculated in Excel, and then inhibition curves were plotted and relevant parameters including minimum inhibition rate, maximum inhibition rate and IC50 were calculated using GraphPad Prism software.

[2] = test system: SW480 (G12V); assay: KRAS mutant cell proliferation inhibition assay (CellTiter-Glo 3D), SW480; type: cell-based; conditions: SW480 (G12V) cells, 7 days
Experimental: as §1, §2, §3, §4, §5, §6

IC50 ([1]; Homo sapiens, ASPC1, 168 h) [µM]	IC50 ([2]; Homo sapiens, 168 h) [µM]	Compound	further results
0.387	0.66	CCc1c(F)ccc2cc(O)cc(-c3ncc4c(N5CCC[C@]6(CCO6)C5)nc(OC[C@@]56CCCN5C[C@@]5(CC5(F)F)C6)nc4c3F)c12 (single isomer, unassigned) [Example A-16B]	–
–	–	CCc1c(F)ccc2cc(O)cc(-c3ncc4c(N5CCC[C@@]6(CCO6)C5)nc(OC[C@@]56CCCN5C[C@@]5(CC5(F)F)C6)nc4c3F)c12 [Example A-16A, 4-(2-(((15,7a'S)-2,2-difluorodihydro-1′H,3′H-spiro[cyclopropane-1,2′-pyrrolizin]-7a′ (5′H)-yl)methoxy)-8-fluoro-4-((R)-1-oxa-6-azaspiro[3.5]nonan-6-yl)pyrido[4,3-d]pyrimidin-7-yl)-5-ethyl-6-fluoronaphthalen-2-ol]	IC50 [1]: 0.0057 µM; IC50 [2]: 0.0111 µM
> 1	–	CCc1c(F)ccc2cc(O)cc(-c3ncc4c(N5CCC6(COC6)C5)nc(OC[C@@]56CCCN5C[C@@]5(CC5(F)F)C6)nc4c3F)c12 [Example A-21, 4-(2-(((1S,7a'S)-2,2-Difluorodihydro-1′H,3′H-spiro[cyclopropane-1,2′-pyrrolizin]-7a′ (5′H)-yl)methoxy)-8-fluoro-4-(2-oxa-6-azaspiro[3.4]octan-6-yl)pyrido[4,3-d]pyrimidin-7-yl)-5-ethyl-6-fluoronaphthalen-2-ol]	–
> 1	–	CCc1c(F)ccc2cc(O)cc(-c3ncc4c(N5CCC6(CCO6)C5)nc(OC[C@@]56CCCN5C[C@@]5(CC5(F)F)C6)nc4c3F)c12 (stereo partly drawn) [Example A-22, 4-(2-(((1.S,7a'S)-2,2-Difluorodihydro-1′H,3′H-spiro[cyclopropane-1,2′-pyrrolizin]-7a′ (5′H)-yl)methoxy)-8-fluoro-4-(1-oxa-6-azaspiro[3.4]octan-6-yl)pyrido[4,3-d]pyrimidin-7-yl)-5-ethyl-6-fluoronaphthalen-2-ol]	–
> 1	–	CCc1c(F)ccc2cc(O)cc(-c3ncc4c(N5CC6(CCO6)C5)nc(OC[C@@]56CCCN5C[C@@]5(CC5(F)F)C6)nc4c3F)c12 [Example A-23, 4-(2-(((1S,7a'S)-2,2-Difluorodihydro-1′H,3′H-spiro[cyclopropane-1,2′-pyrrolizin]-7a′ (5′H)-yl)methoxy)-8-fluoro-4-(1-oxa-6-azaspiro[3.4]heptan-6-yl)pyrido[4,3-d]pyrimidin-7-yl)-5-ethyl-6-fluoronaphthalen-2-ol]	–
0.0276	0.0373	CCc1c(F)ccc2cc(O)cc(-c3ncc4c(N5CCCOC6CC65)nc(OC[C@@]56CCCN5C[C@@]5(CC5(F)F)C6)nc4c3F)c12 (stereo partly drawn) [Example A-28, 4-(4-(2-Oxa-6-azabicyclo[5.1.0]octan-6-yl)-2-(((1S,7a'S)-2,2-difluorodihydro-1′H,3′ H-spiro[cyclopropane-1,2′-pyrrolizin]-7a′ (5′H)-yl)methoxy)-8-fluoropyrido[4,3-d]pyrimidin-7-yl)-5-ethyl-6-fluoronaphthalen-2-ol]	–
0.00485	0.0021	C#Cc1c(F)ccc2cc(O)cc(-c3ncc4c(N5CCCOC6CC65)nc(OC[C@@]56CCCN5C[C@@]5(CC5(F)F)C6)nc4c3F)c12 (stereo partly drawn) [Example A-29, 4-(4-((cis)-2-Oxa-6-azabicyclo[5.1.0]octan-6-yl)-2-(((1,5,7a'S)-2,2-difluorodihydro-1′H,3′H-spiro[cyclopropane-1,2′-pyrrolizin]-7a′ (5′H)-yl)methoxy)-8-fluoropyrido[4,3-d]pyrimidin-7-yl)-5-ethynyl-6-fluoronaphthalen-2-ol]	–
0.736	0.651	CCc1c(F)ccc2cc(O)cc(-c3ncc4c(N5CCC6CCC(C5)O6)nc(OC[C@@]56CCCN5C[C@@]5(CC5(F)F)C6)nc4c3F)c12 (stereo partly drawn) [Example A-31]	–
–	0.336	Nc1cc(Cl)c(C(F)(F)F)c(-c2ncc3c(N4CC5COC(C5)C4)nc(OC[C@@]45CCCN4C[C@@]4(CC4(F)F)C5)nc3c2F)c1 (stereo partly drawn) [Example A-32, 3-(4-(6-Oxa-3-azabicyclo[4.2.1]nonan-3-yl)-2-(((1S,7a'S)-2,2-difluorodihydro-1′H,3′H-spiro[cyclopropane-1,2′-pyrrolizin]-7a′ (5′H)-yl)methoxy)-8-fluoropyrido[4,3-d]pyrimidin-7-yl)-5-chloro-4-(trifluoromethyl)aniline]	–
–	0.168	CCc1c(F)ccc2cc(O)cc(-c3ncc4c(N5CC6COC(C6)C5)nc(OC[C@@]56CCCN5C[C@@]5(CC5(F)F)C6)nc4c3F)c12 (stereo partly drawn) [Example A-33]	–
–	0.0667	CCc1c(F)ccc2cc(O)cc(-c3ncc4c(N5CCOCC(F)C5)nc(OC[C@@]56CCCN5C[C@@]5(CC5(F)F)C6)nc4c3F)c12 (stereo partly drawn) [Example A-34, 4-(2-(((1S,7a'S)-2,2-Difluorodihydro-1′H,3′H-spiro[cyclopropane-1,2′-pyrrolizin]-7a′ (5′H)-yl)methoxy)-8-fluoro-4-(6-fluoro-1,4-oxazepan-4-yl)pyrido[4,3-d]pyrimidin-7-yl)-5-ethyl-6-fluoronaphthalen-2-ol]	–
–	0.159	CCc1c(F)ccc2cc(O)cc(-c3ncc4c(N5CCOCC(F)(F)C5)nc(OC[C@@]56CCCN5C[C@@]5(CC5(F)F)C6)nc4c3F)c12 [Example A-35, 4-(4-(6,6-Difluoro-1,4-oxazepan-4-yl)-2-(((1.S,7a'S)-2,2-difluorodihydro-1′H,3′H-spiro[cyclopropane-1,2′-pyrrolizin]-7a′ (5′H)-yl)methoxy)-8-fluoropyrido[4,3-d]pyrimidin-7-yl)-5-ethyl-6-fluoronaphthalen-2-ol]	–
–	0.102	CCc1c(F)ccc2cc(O)cc(-c3ncc4c(N5CCCCC(F)C5)nc(OC[C@@]56CCCN5C[C@@]5(CC5(F)F)C6)nc4c3F)c12 (stereo partly drawn) [Example A-36, 4-(2-(((1S,7a'S)-2,2-Difluorodihydro-1′H,3′H-spiro[cyclopropane-1,2′-pyrrolizin]-7a′ (5′H)-yl)methoxy)-8-fluoro-4-(3-fluoroazepan-1-yl)pyrido[4,3-d]pyrimidin-7-yl)-5-ethyl-6-fluoronaphthalen-2-ol]	–
> 1	–	CCc1c(F)ccc2cc(O)cc(-c3ncc4c(N(C)C5CC5)nc(OC[C@@]56CCCN5C[C@@]5(CC5(F)F)C6)nc4c3F)c12 [Example A-40, 4-(4-(Cyclopropyl(methyl)amino)-2-(((1S,7a'S)-2,2-difluorodihydro-1′H,3′ H-spiro[cyclopropane-1,2′-pyrrolizin]-7a′ (5′H)-yl)methoxy) 8-fluoropyrido[4,3-d]pyrimidin-7-yl)-5-ethyl-6-fluoronaphthalen-2-ol]	–
> 1	–	CN(c1nc(OC[C@@]23CCCN2C[C@@]2(CC2(F)F)C3)nc2c(F)c(-c3cc(N)cc(Cl)c3C(F)(F)F)ncc12)C1CC1 [Example A-41, 7-(5-Amino-3-chloro-2-(trifluoromethyl)phenyl)-N-cyclopropyl-2-(((1S,7a'S)-2,2-difluorodihydro-1′H,3′H-spiro[cyclopropane-1,2′-pyrrolizin]-7a′ (5′H)-yl)methoxy)-8-fluoro-N-methylpyrido[4,3-d]pyrimidin-4-amine]	–
> 1	–	CCc1c(F)ccc2cc(O)cc(-c3ncc4c(N(C)C(C)C5CC5)nc(OC[C@@]56CCCN5C[C@@]5(CC5(F)F)C6)nc4c3F)c12 (stereo partly drawn) [Example A-42, 4-(4-((1-Cyclopropylethyl)(methyl)amino)-2-(((15,7a'S)-2,2-difluorodihydro-1′H,3′H-spiro[cyclopropane-1,2′-pyrrolizin]-7a′ (5′H)-yl)methoxy)-8-fluoropyrido[4,3-d]pyrimidin-7-yl)-5-ethyl-6-fluoronaphthalen-2-ol trifluoroacetate]	–
0.986	–	CC(C1CC1)N(C)c1nc(OC[C@@]23CCCN2C[C@@]2(CC2(F)F)C3)nc2c(F)c(-c3cc(N)cc(Cl)c3C(F)(F)F)ncc12 (stereo partly drawn) [Example A-43, 7-(5-Amino-3-chloro-2-(trifluoromethyl)phenyl)-N-(1-cyclopropylethyl)-2-(((1.S,7a'S)-2,2-difluorodihydro-1′H,3′H-spiro[cyclopropane-1,2′-pyrrolizin]-7a′ (5′H)-yl)methoxy)-8-fluoro-N-methylpyrido[4,3-d]pyrimidin-4-amine trifluoroacetate]	–
> 1	–	CN(C)C(=O)c1cc2n(n1)CCCN(c1nc(OC[C@@]34CCCN3C[C@@]3(CC3(F)F)C4)nc3c1CCN(c1ccc(F)c4sc(N)c(C#N)c14)C3)C2 [Example B-15, 5-(7-(2-Amino-3-cyano-7-fluorobenzo[b]thiophen-4-yl)-2-(((trans)-2,2-fluorodihydro-1′H,3′H-spiro[cyclopropane-1,2′-pyrrolizin]-7a′ (5′H)-yl)methoxy)-5,6,7,8-tetrahydropyrido[3,4-d]pyrimidin-4-yl)-N,N-dimethyl-5,6,7,8-tetrahydro-4H-pyrazolo[1,5-a][1,4]diazepine-2-carboxamide]	–
> 1	–	CN(C)C(=O)c1cc2n(n1)CCCN(c1nc(OC[C@]34CCCN3C[C@]3(CC3(F)F)C4)nc3c1CCN(c1cccc4ccc(F)c(Cl)c14)C3)C2 [Example B-16, 5-(7-(8-Chloro-7-fluoronaphthalen-1-yl)-2-(((trans)-2,2-2,2-fluorodihydro-1′H,3′H-spiro[cyclopropane-1,2′-pyrrolizin]-7a′ (5′H)-yl)methoxy)-5,6,7,8-tetrahydropyrido[3,4-d]pyrimidin-4-yl)-N,N-dimethyl-5,6,7,8-tetrahydro-4H-pyrazolo[1,5-a][1,4]diazepine-2-carboxamide]	–
